We go through two substances from patent EP0312346B1, “E. coli sequence specific acid protease” (GENENCOR INTERNATIONAL, INC., priority 1987, dated 1989).

In this experiment the test system is acid protease of E.coli. The experiment in a line: Inhibition of the protease cleaving activity (lysis at pH 5, 26 Kd CCP fragment on Western blot). It counts as biochemical. The text has this: E.coli expressing CCP was lysed at pH 5 in the presence of increasing concentrations of poly-L-lysine or poly-L-arginine. Any protease activity was evidenced by the appearance of the 26 Kd fragment on Western blot. […] No 26 Kd fragment appeared; DTT, PMSF and EDTA had no inhibitory effect on the lysine-lysine lysine-arginine, arginine-lysine or arginine-arginine cleaving activity of the protease.
A general note: A western blot detects proteins with antibodies after separation by electrophoresis.

[1] abbreviates: 1 mM inhibitor, E.coli expressing CCP lysed at pH 5, no 26 Kd fragment appeared on Western blot.

For the substance poly-L-arginine, the “inhibition of the protease activity” value under setting [1] is “completely inhibited” and the “inhibition of the protease activity” value (no concentration stated) is “inhibited”.
The like results for poly-L-lysine were, in that order, “completely inhibited” and “inhibited”.
